Consider 32 molecules from ChEMBL document CHEMBL4699399, “Discovery of isoxazolyl-based inhibitors of Plasmodium falciparum cGMP-dependent protein kinase” (RSC Med Chem, 2020).

Tested on in the first series: not listed separately
The experiment in a line: Inhibition of human PKG measured up to 10 uM.
Conditions: not given; call rule not given here
Regarding `CCN(CC)Cc1onc(-c2ccccc2)c1-c1ccnc(N[C@@H]2CCN(C(=O)c3cnoc3)C2)n1`, the “inhibition (INH)” value was “Not Active”.

`Cc1onc(-c2cccc(Cl)c2)c1-c1ccnc(N[C@@H]2CCN(C(=O)c3cnoc3)C2)n1`: the “inhibition (INH)” value is listed as “Not Active”.

In another series the test system is Plasmodium falciparum. In words: Inhibition of recombinant Plasmodium falciparum PKG using FAM-PKAtide as substrate at 10 uM preincubated for 15 mins followed by substrate addition and measured after 1 hr by IMAP fluorescence polarization assay relative to control. The following applies: time 75.0 min.
`CCN(CC)Cc1onc(-c2cccc(Cl)c2)c1-c1ccnc(N[C@@H]2CCN(Cc3ccn(C)n3)C2)n1`: the inhibition (usually the drop in the measured response relative to a control, in per cent) is 5%.

Consider `CCN(CC)Cc1onc(-c2cccc(Cl)c2)c1-c1ccnc(N2CCCC(C(=O)c3ccsn3)C2)n1` (racemic), for which the inhibition was 75%.

On to `CCN(CC)Cc1onc(-c2cccc(Cl)c2)c1-c1ccnc(N2CCCC2CC(=O)c2ccsn2)n1` (racemic), for which the inhibition is 60%.

Consider `CCN(CC)Cc1onc(-c2cccc(Cl)c2)c1-c1ccnc(N2CCC(C(=O)c3ccsn3)CC2)n1`, for which the inhibition is 46%.

On to `CCN(CC)Cc1onc(-c2cccc(Cl)c2)c1-c1ccnc(N[C@@H]2CCN(Cc3cnn(C)c3)C2)n1`, for which the inhibition turned out to be 5%.

For `CCOC(=O)c1onc(-c2ccccc2)c1-c1ccnc(N[C@@H]2CCN(C(=O)c3cnoc3)C2)n1`, the inhibition was 23%.

For the molecule `O=C(c1cnoc1)N1CC[C@H](Nc2nccc(-c3c(-c4ccccc4)noc3CO)n2)C1`, the inhibition was 60%.

On to `CCN(CC)Cc1onc(-c2cccc(Cl)c2)c1-c1ccnc(N[C@@H]2CCN(S(=O)(=O)c3cnn(C)c3)C2)n1`, for which the inhibition came to 40%.

Tested on in the next series: not listed separately
In words: Inhibition of recombinant Plasmodium falciparum PKG using FAM-PKAtide as substrate preincubated for 15 mins followed by substrate addition and measured after 1 hr by IMAP fluorescence polarization assay.
Conditions: not given
(In general: Fluorescence polarisation rises when a labelled molecule tumbles more slowly, as on binding a larger partner.)
With `CCN(CC)Cc1onc(-c2cccc(Cl)c2)c1-c1ccnc(N[C@@H]2CCN(C(=O)c3cnoc3)C2)n1`, the IC50 (usually the concentration needed to halve the response being measured) turned out to be 13 nM.

`CCN(CC)Cc1onc(-c2ccc(F)cc2)c1-c1ccnc(N[C@@H]2CCN(C(=O)c3cnoc3)C2)n1`: the IC50 came to 660 nM.

For `CCN(CC)Cc1onc(-c2cccc(Cl)c2)c1-c1ccnc(N[C@@H]2CCN(C(=O)c3ccsn3)C2)n1`, the IC50 stood at 15 nM.

Take `O=C(c1cnoc1)N1CC[C@@H](Nc2nccc(-c3c(-c4ccccc4)noc3CN3CCCC3)n2)C1`: the IC50 was 1400 nM.

Take `CCN(CC)Cc1onc(-c2cccc(Cl)c2)c1-c1ccnc(N[C@@H]2CCN(C(=O)c3c[nH]cn3)C2)n1`: the IC50 came out at 47 nM.

For the molecule `Cc1onc(-c2ccccc2Cl)c1-c1ccnc(N[C@@H]2CCN(C(=O)c3cnoc3)C2)n1`, the IC50 came to 2100 nM.

In the case of `CCN(CC)Cc1onc(-c2cccc(Cl)c2)c1-c1ccnc(N2CC(C(=O)c3ccsn3)C2)n1`, the IC50 is 2600 nM.

As for `CCN(CC)Cc1onc(-c2cccc(Cl)c2)c1-c1ccnc(N[C@@H]2CCN(C(=O)c3cnn(C)c3)C2)n1`, the IC50 was 38 nM.

Regarding `Cc1onc(-c2ccccc2)c1-c1ccnc(N[C@@H]2CCN(C(=O)c3cccnc3)C2)n1`, the half-inhibitory concentration (IC50) is 1000 nM.

On to `Cc1onc(-c2ccccc2)c1-c1ccnc(N[C@@H]2CCN(C(=O)c3cnoc3)C2)n1`, for which the IC50 worked out at 750 nM.

Turning to `CCN(CC)Cc1onc(-c2ccccc2)c1-c1ccnc(N[C@@H]2CCN(C(=O)c3cnoc3)C2)n1`, the IC50 worked out at 850 nM.

For the molecule `CCN(CC)Cc1onc(-c2cccc(Cl)c2)c1-c1ccnc(N[C@@H]2CCN(C(=O)c3nc[nH]n3)C2)n1`, the IC50 stood at 620 nM.

In the case of `CCN(CC)Cc1onc(-c2cccc(Cl)c2)c1-c1ccnc(N[C@@H]2CCN(C(=O)c3cn[nH]c3)C2)n1`, the IC50 was determined as 97 nM.

As to `O=C(c1cnoc1)N1CC[C@@H](Nc2nccc(-c3c(-c4ccccc4)noc3CN3CCOCC3)n2)C1`, the IC50 came out at 1000 nM.

Regarding `CCN(CC)Cc1onc(-c2ccccc2F)c1-c1ccnc(N[C@@H]2CCN(C(=O)c3cnoc3)C2)n1`, the IC50 worked out at 900 nM.

Turning to `CCN(CC)Cc1onc(-c2cccc(Cl)c2)c1-c1ccnc(N[C@@H]2CCN(C(=O)c3ccon3)C2)n1`, the IC50 is 25 nM.

As for `Cc1onc(-c2cccc(Cl)c2)c1-c1ccnc(N[C@@H]2CCN(C(=O)c3cnoc3)C2)n1`, the IC50 was 210 nM.

On to `CCN(CC)Cc1onc(-c2cccc(Cl)c2)c1-c1ccnc(N[C@@H]2CCN(C(=O)c3ccn(C)n3)C2)n1`, for which the IC50 was determined as 10 nM.

As for `O=C(c1cnoc1)N1CC[C@@H](Nc2nccc(-c3c(-c4ccccc4)noc3CO)n2)C1`, the concentration for half-maximal inhibition (IC50) was determined as 1000 nM.

Turning to `CCN(CC)Cc1onc(-c2cccc(F)c2)c1-c1ccnc(N[C@@H]2CCN(C(=O)c3cnoc3)C2)n1`, the 50% inhibitory concentration (IC50) stood at 360 nM.

Consider `Cc1onc(-c2ccc(Cl)cc2)c1-c1ccnc(N[C@@H]2CCN(C(=O)c3cnoc3)C2)n1`, for which the IC50 is 2800 nM.

For the molecule `CCN(CC)Cc1onc(-c2cccc(Cl)c2)c1-c1ccnc(N[C@@H]2CCN(C(=O)c3cc[nH]n3)C2)n1`, the IC50 was 120 nM.

For the molecule `Cc1onc(-c2ccccc2)c1-c1ccnc(N[C@@H]2CCN(C(=O)c3cnccn3)C2)n1`, the IC50 is 2000 nM.

For the molecule `CCN(CC)Cc1onc(-c2cccc(Cl)c2)c1-c1ccnc(N[C@@H]2CCN(C(=O)c3cnsc3)C2)n1`, the IC50 amounted to 74 nM.
